Reference: PMC7906907, “Targeting STAT3 by a small molecule suppresses pancreatic cancer progression” (Oncogene, 2021)

Columns and labels:
STAT3^127–722 protein = biological target: T1, STAT3^127–722 protein (Homo sapiens, UniProt P40763); assay: Surface plasmon resonance (SPR) assay; format: binding
T1 construct: made in house
Protocol: Surface plasmon resonance (SPR) analysis was conducted with a Biacore T200 instrument (GE Healthcare) with CM5 sensor chip (GE Healthcare). To test N4 binding of STAT3^127–722 protein, serially diluted concentrations of N4 were injected into the flow system. Experiments were conducted using phosphate buffered saline (PBS) and the analyte was injected at the flow rate of 30 μL/min. The association time was 60 s and the dissociation time was 30 s. Since N4 was dissolved in PBS containing 5% dimethyl sulfoxide and a solvent correction assay was performed to adjust the results. STAT3^127–722 protein was immobilized on the sensor chip (CM5) using the amine-coupling method according to standard protocols. N4 or Stattic at various concentrations were injected into the flow system. […] The KD values were calculated with the kinetics and affinity analysis option of Biacore T200 plus evaluation software (version 3.0).

STAT3-SH2 = biological target: T2, STAT3-SH2 (Homo sapiens, UniProt P40763); assay: Microscale thermophoresis (MST) assay, STAT3-SH2; format: binding
T2 construct: made in house
Excerpt: (§1) Fig. 3 N4 interacts with the STAT3-SH2 domain and interferes with the STAT3-EGFR and STAT3-NF-κB interactions. […] C–E The binding between N4 and STAT3 was examined in (C) SPR and (D) MST experiments. His-STAT3^127-722 protein was purified and used to examine the affinity between STAT3 and N4. (E) The binding between N4 and STAT3^SH2 was confirmed in MST assays. STAT3-SH2 protein was purified and labeled. N4 was serially diluted and mixed with equal volumes of labeled STAT3^SH2 protein. The MST signal was measured, and the data were analyzed by MO analysis software. F, G The FLAG-tag and HA-tag STAT3 expression plasmid was transfected into 293 T cells, followed by the addition of the indicated concentrations of N4. After 24 h, cells were lysed, and immunoprecipitation experiments were performed as described in Materials and Methods. H N4 represses STAT3 dimerization in pancreatic cancer cells. I After a 24 h treatment with 2 μM N4, pancreatic cancer cells were stimulated with IL-6 for 30 min. Cell lysates were immunoprecipitated with STAT3 overnight. […]
The MST assay was previously described. Binding affinities of N4 with the purified His-STAT3-SH2 were measured using the Monolith NT.115 device (NanoTemper Technologies). […] The samples were then loaded into premium capillaries (NanoTemper Technologies) and measured using the Monolith NT.115 device. […]

STAT3–EGFR interaction = biological target: T3, STAT3–EGFR interaction (Homo sapiens, UniProt P40763); assay: Co-immunoprecipitation, STAT3–EGFR interaction; format: cell-based; conditions: PANC-1 cells, 2 μM, 24 h
T3 construct: endogenous in cells; host or cells: PANC-1
Excerpt: as §1, with “overnight. The precipitates were washed, suspended in non-reducing sample buffer, and boiled for 10 min. The indicated antibodies were used for western blot assays.” for “overnight.”
(§2) Co-IP was performed as previously described. […] After overnight incubation, the precipitates were washed and analyzed using western blotting.

STAT3-NF-κB complex = biological target: T4, STAT3-NF-κB complex (Homo sapiens, UniProt P40763); assay: Co-immunoprecipitation, STAT3-NF-κB interaction; format: cell-based; conditions: PANC-1 cells, 2 μM, 24 h
T4 construct: endogenous in cells; host or cells: PANC-1
Excerpt: as §1, with “overnight. The precipitates were washed, suspended in non-reducing sample buffer, and boiled for 10 min. The indicated antibodies were used for western blot assays.” for “overnight.”
as §2

Pancreatic cancer cells = assay: Trans-well migration; format: cell-based
Protocol: independent assays; *P < 0.05, **P < 0.01, ***P < 0.001, ****p < 0.0001 by one-way ANOVA followed by multiple comparisons. (C) Pancreatic cancer cells were seeded in the top chamber of Trans-well inserts and treated with N4 the following day. The lower chamber was fixed, stained, and photographed. Experiments were carried out in triplicate with identical results obtained. Data shown as mean ± SD; **P < 0.01, ****p < 0.0001 by Student’s t-tests. Scale bar, 100 μm.

PAN02-luc = assay: Pancreatic cancer liver metastatic mouse model; format: in vivo, C57BL/6 mice; conditions: for mice alive: n = 5
Protocol: C57BL/6 mice were intrasplenically injected with luciferase-expressing PAN02 cells (PAN02-luc) in matrigel and tumor growth was assessed (A) and quantified (B) by bioluminescent imaging weekly. […] C After 4 weeks, mice were sacrificed and livers were imaged. D The body weight of C57BL/6 tumor-bearing mice were measured weekly.
C57BL/6, male, 8-week-old mice were obtained from the Animal Center of East China Normal University. All animal experimental protocols were approved by the Animal Investigation Committee of the Institute of Biomedical Sciences, East China Normal University. PAN02 cells that stably expressed luciferase (PAN02-luc) were embedded in Matrigel (BD Biosciences) and intrasplenically injected into mice. Tumors were allowed to grow for 1 week and treatment of the mice with either compound or control was started after grouping of the mice according to average bioluminescence. The IVIS Imaging System (Xenogen Corporation) was used to monitor pancreatic tumor growth and metastasis. Images and measurements of bioluminescent signals were acquired and analyzed using Living Image and Xenogen software.

T1 sequence (P40763 127-722): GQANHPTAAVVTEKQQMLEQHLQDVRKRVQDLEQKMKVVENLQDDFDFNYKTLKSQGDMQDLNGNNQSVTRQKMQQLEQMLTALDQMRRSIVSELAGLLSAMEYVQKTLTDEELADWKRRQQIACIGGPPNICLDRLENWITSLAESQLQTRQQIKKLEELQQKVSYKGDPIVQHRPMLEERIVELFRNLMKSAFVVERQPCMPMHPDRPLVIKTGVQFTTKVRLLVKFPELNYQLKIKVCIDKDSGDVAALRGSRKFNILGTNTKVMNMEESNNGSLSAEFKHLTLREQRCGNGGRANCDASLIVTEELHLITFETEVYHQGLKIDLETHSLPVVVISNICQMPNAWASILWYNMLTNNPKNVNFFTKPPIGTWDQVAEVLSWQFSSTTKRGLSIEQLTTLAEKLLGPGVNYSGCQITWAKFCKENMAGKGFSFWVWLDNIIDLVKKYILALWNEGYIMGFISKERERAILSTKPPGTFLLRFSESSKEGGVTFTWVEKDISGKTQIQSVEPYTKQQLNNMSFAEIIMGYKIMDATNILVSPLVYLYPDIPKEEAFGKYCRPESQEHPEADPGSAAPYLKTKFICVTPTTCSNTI
T2 sequence (P40763 580-670 limits assumed): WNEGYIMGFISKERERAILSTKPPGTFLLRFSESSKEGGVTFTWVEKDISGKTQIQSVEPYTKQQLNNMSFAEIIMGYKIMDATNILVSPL
T4 sequence (P40763 2-770 limits assumed, one chain of several): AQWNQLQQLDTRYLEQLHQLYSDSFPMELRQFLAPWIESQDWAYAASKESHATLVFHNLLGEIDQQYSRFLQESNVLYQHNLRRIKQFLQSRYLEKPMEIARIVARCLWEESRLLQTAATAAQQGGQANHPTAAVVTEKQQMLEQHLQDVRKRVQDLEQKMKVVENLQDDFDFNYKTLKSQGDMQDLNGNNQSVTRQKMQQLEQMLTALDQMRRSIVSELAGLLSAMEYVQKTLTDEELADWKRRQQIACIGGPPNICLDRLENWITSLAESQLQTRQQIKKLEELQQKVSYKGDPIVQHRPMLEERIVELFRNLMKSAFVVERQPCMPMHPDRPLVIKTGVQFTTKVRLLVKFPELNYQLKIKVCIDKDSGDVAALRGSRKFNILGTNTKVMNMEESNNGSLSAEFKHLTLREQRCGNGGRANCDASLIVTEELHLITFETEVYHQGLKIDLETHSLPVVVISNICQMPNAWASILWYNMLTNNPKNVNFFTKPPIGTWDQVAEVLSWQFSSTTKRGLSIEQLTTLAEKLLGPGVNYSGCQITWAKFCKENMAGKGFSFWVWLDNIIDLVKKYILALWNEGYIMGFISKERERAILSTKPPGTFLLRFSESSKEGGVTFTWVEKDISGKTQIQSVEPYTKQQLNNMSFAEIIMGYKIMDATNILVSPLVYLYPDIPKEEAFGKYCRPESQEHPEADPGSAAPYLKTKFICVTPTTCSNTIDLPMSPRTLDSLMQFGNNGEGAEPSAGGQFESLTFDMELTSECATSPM
T3 sequence (P40763 2-770 limits assumed): as the sequence (P40763 2-770 limits assumed, one chain of several) above

Compound: COc1cc2c(cc1C(=O)Nc1cccc3cccnc13)CCC1C(C)(C)C(=O)C(C#N)=C[C@]21C (some centres unmarked) [N4]
- Kd (STAT3^127–722 protein; SPR, STAT3^127–722 immobilized on CM5 chip, 25 °C): 1.04 µM
- improvement of binding affinities to STAT3 than Stattic (STAT3^127–722 protein; in FP and SPR experiments): approximately tenfold improvement
- Kd (STAT3-SH2): 1.01 µM
- STAT3–EGFR interaction (STAT3–EGFR interaction): inhibited
- interaction between STAT3 and NF-κB (STAT3-NF-κB complex): blocked
- pancreatic cancer migration (Pancreatic cancer cells): efficiently blocked
- mice bodyweight (PAN02-luc; measured weekly): no obvious effect
- tumor metastasis suppressed compared with the control group (PAN02-luc; week 4, 10 mg/kg/d): 63.25%
- tumor metastasis suppressed compared with the control group (PAN02-luc; week 4, 20 mg/kg/d): 81.16%
- mice alive (PAN02-luc; week 10, 10 mg/kg/d): 40%
- mice alive (PAN02-luc; week 10, 20 mg/kg/d): 80%
